Tests used:
Format in all cases: functional
[1] = target: T1, Peroxisome proliferator-activated receptor delta (Homo sapiens, UniProt Q03181); experiment: Agonist activity at human PPARdelta assessed as transactivation activity
T1 sequence (Q03181 whole entry): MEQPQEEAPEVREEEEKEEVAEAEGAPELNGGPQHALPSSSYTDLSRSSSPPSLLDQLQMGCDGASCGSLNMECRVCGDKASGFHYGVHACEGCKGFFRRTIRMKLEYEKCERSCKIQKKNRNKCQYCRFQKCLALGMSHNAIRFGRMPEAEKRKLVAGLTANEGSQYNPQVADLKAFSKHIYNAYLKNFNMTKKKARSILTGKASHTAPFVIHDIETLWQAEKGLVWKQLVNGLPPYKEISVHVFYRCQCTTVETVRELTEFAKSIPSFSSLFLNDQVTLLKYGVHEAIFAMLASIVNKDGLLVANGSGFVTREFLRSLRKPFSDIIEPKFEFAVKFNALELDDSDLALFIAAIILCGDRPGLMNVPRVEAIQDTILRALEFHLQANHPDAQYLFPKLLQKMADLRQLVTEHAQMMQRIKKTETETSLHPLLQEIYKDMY

[2] = target: T2, Peroxisome proliferator-activated receptor alpha (Homo sapiens, UniProt Q07869); experiment: Agonist activity at human PPARalpha assessed as transactivation activity
T2 sequence (Q07869 whole entry): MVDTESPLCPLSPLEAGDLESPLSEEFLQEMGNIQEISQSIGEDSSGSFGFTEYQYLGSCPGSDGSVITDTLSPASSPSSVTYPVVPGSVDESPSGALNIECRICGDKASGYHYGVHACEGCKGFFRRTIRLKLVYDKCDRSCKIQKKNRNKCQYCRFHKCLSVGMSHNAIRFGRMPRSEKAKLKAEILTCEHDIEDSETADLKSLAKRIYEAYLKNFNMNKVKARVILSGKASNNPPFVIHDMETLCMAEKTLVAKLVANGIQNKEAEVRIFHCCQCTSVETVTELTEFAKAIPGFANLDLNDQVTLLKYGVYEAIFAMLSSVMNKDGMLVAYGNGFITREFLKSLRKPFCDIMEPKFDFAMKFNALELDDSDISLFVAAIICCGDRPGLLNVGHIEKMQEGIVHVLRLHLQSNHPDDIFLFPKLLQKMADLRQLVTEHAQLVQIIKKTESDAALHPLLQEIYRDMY

[3] = target: T3, Peroxisome proliferator-activated receptor gamma (Homo sapiens, UniProt P37231); experiment: Agonist activity at N-terminal His-tagged human PPARgamma expressed in Escherichia coli BL21 assessed as transactivation activity
T3 sequence (P37231 whole entry): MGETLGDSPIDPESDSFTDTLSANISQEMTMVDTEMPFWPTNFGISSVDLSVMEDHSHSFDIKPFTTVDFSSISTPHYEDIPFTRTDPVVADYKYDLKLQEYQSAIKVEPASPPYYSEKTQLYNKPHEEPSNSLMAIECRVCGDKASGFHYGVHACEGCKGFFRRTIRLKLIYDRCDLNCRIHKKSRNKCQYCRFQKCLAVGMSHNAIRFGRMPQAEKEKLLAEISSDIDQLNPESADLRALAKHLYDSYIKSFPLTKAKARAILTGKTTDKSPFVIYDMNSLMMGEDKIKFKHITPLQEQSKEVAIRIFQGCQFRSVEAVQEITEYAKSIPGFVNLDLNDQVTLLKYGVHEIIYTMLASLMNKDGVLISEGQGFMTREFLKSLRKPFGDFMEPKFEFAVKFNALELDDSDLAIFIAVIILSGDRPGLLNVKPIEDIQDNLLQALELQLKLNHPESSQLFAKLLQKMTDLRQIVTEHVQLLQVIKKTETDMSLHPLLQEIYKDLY

EC50 [1]: 43 nM
EC50 [2]: 12 nM
EC50 [3]: Not Active
SMILES: CC[C@@H](Cc1ccc(OC)c(CNC(=O)c2ccc3ccc4cccc5ccc2c3c45)c1)C(=O)O

Reference: ChEMBL document CHEMBL1955804, “Peroxisome proliferator-activated receptors (PPARs) have multiple binding points that accommodate ligands in various conformations: phenylpropanoic acid-type PPAR ligands bind to PPAR in different conformations, depending on the subtype” (J Med Chem, 2012)
